According to publication PMC4710095 (Journal of medicinal chemistry, 2012):

Assays:
[1] = system: TcFPPS; conditions: TcFPPS enzymatic activity; IC50 were calculated before; cited from earlier work
[2] = system: T. cruzi; conditions: in vivo assays; cited from earlier work
[3] = target: T1, TcFPPS (Trypanosoma cruzi farnesyl diphosphate synthase) (Trypanosoma cruzi, UniProt Q8WS26); assay: Isothermal titration calorimetry of bisphosphonate binding to TcFPPS; conditions: ITC, 28 °C; for ΔG / ΔH / ΔS: single binding site per monomer
T1 sequence (Q8WS26 64-425): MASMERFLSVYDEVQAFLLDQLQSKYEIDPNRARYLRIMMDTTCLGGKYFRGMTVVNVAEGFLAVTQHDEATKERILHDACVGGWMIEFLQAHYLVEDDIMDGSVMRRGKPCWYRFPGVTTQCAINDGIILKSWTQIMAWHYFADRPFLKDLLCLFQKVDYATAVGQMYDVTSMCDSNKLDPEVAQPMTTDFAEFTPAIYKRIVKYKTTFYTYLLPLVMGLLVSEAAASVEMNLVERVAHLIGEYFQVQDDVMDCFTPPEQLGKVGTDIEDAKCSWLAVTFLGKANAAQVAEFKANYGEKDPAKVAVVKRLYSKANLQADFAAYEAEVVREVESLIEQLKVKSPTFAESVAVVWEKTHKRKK

O=P(O)(O)C(CNC1CCCCC1)P(=O)(O)O [Compound 14, [2-(cyclohexylamino)ethane-1,1-diyl]bisphosphonic acid]
IC50 [1]: 13 nM

O=P(O)(O)C(O)(Cc1cccnc1)P(=O)(O)O [risedronate]
survival of T. cruzi-infected mice [2]: significantly increase survival

CCCCCNCC(P(=O)(O)O)P(=O)(O)O [Compound 11, [2-(n-pentylamino)ethane-1,1-diyl]bisphosphonic acid]
IC50 [1]: 1840 nM
ΔG [3]: -8.15 kcal/mol
ΔH [3]: 5.22 ± 0.11 kcal/mol
ΔS [3]: 44.7 cal/mol/K

CCCCCCNCC(P(=O)(O)O)P(=O)(O)O [Compound 12, [2-(n-hexylamino)ethane-1,1-diyl]bisphosphonic acid]
IC50 [1]: 490 nM
ΔG [3]: -8.72 kcal/mol
ΔH [3]: 7.87 ± 0.11 kcal/mol
ΔS [3]: 55.4 cal/mol/K
unfavorable binding enthalpy, excess over the other inhibitors ([3]; compared with the other n-alkyl inhibitors): 1.5 to 2.0 kcal/mol

CCCCCCCNCC(P(=O)(O)O)P(=O)(O)O [Compound 13, [2-(n-heptylamino)ethane-1,1-diyl]bisphosphonic acid]
IC50 [1]: 58 nM
ΔG [3]: -9.88 kcal/mol
ΔH [3]: 5.65 ± 0.09 kcal/mol
ΔS [3]: 51.9 cal/mol/K
ΔH, 2-site model, first value ([3]; values calculated using 2-site model (two different sites per dimer), first site): 6.39 ± 0.36 kcal/mol
ΔH, 2-site model, second value ([3]; values calculated using 2-site model (two different sites per dimer), second site): 4.62 ± 0.44 kcal/mol

CCCNCC(P(=O)(O)O)P(=O)(O)O [Compound 10, [2-(n-propylamino)ethane-1,1-diyl]bisphosphonic acid]
IC50 [1]: 38 nM
ΔG [3]: -10.43 kcal/mol
ΔH [3]: 6.35 ± 0.07 kcal/mol
ΔS [3]: 56.1 cal/mol/K
